Consider 21 compounds from ChEMBL document CHEMBL1201862, “PubChem BioAssay data set” (2004).

One experiment has as its target T1, Protein skinhead-1 (Caenorhabditis elegans, UniProt P34707).
T1 sequence (P34707 whole entry): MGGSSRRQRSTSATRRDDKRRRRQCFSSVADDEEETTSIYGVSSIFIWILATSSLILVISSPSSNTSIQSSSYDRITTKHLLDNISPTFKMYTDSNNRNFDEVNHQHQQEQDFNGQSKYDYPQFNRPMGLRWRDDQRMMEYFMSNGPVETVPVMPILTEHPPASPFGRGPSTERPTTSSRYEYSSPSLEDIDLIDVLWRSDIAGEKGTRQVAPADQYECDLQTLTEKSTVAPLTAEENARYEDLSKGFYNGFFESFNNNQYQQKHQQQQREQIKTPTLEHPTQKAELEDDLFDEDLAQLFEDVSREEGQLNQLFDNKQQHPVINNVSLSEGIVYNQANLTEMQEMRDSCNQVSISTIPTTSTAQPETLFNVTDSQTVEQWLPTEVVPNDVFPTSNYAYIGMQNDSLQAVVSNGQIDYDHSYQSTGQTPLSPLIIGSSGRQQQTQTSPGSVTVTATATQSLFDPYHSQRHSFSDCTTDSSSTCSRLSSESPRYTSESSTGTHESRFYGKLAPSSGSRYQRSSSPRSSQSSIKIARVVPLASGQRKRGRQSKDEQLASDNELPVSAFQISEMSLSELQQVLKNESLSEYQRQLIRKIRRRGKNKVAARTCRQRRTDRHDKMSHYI
It counts as functional.

Experiment [1] is described as follows: Luminescence Cell-Based Dose Confirmation HTS to Identify Inhibitors of Platelet Dense Granule Release. [Related pubchem assays: 1663 (Primary HTS), 1678 (Summary of Project)]. Format: functional.
In experiment [2] the target is Luciferin 4-monooxygenase (Photinus pyralis, UniProt P08659). In words: inhibition of purified Photinus pyralis luciferase – biochemical, luminescence, dose response (AID 1891).
Chain of Luciferin 4-monooxygenase (P08659 whole entry): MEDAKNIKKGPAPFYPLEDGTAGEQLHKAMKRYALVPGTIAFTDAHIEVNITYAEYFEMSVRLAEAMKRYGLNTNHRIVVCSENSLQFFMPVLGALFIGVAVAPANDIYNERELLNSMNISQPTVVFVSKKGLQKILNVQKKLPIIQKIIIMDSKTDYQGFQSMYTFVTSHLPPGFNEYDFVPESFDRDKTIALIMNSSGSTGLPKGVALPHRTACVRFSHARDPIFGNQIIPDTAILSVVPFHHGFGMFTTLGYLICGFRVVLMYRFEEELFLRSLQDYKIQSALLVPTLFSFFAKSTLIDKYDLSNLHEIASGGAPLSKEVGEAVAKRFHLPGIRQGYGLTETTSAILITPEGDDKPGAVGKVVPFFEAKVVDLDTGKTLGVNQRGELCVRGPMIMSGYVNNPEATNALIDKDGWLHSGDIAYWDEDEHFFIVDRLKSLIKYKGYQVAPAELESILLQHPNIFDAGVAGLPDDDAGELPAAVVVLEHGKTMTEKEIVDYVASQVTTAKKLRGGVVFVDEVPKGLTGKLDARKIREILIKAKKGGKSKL
A short description of experiment [3]: P. falciparum Dd2 growth inhibitors, dose response, SYBR Green, cherry-picked samples (AID 1159567). Format: functional, cell-based.
The test system of another experiment is H9c2. Nature of the experiment: cells. It counts as functional, cell-based. Particulars: Rattus norvegicus, H9c2, Myocardium.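 Note: confirmatory concentration-response retest of ultra-high-throughput screening hits for modulation of myocardial damage; cell death induced by hydrogen peroxide oxidative stress; compound pretreatment for 60 min then peroxide exposure for 2 h; potency is for protecting the cells against peroxide damage rather than for killing them.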
A short description of experiment [4]: microbe, parasite or virus in culture. Particulars: Mycobacterium tuberculosis. It counts as functional.
A short description of experiment [5]: viability of HCT116 lacking mutant beta-catenin – cell-based, human colon tumor, dose response (AID 1045).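 Note: HCT116 colon tumor cells with beta catenin knocked out; cells exposed to compound for 60 hours.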 Format: functional.
A short description of experiment [6]: viability of PTEN-deleted HCT116 cells – cell-based, HCT116 PTEN knockout, dose response (AID 1047).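 Note: HCT116 colon tumor cells with PTEN knocked out; cells exposed to compound for 60 hours before readout; potency for loss of cell viability measured by luminescence.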 Format: functional.

As a reminder, the IC50 is the concentration at which inhibition is half-maximal. One may read the EC50 as the concentration at which the effect is half-maximal. The AC50 is the midpoint of the concentration-response curve, whichever way the signal moves.

Activity calls are given as the source filed them.

With `COc1cccc(NC(=O)C2CCCN(c3ncnc4c3nc3n4CCCCC3)C2)c1` (configuration not stated), the IC50 at Protein skinhead-1 is > 100 µM (inactive).

In the case of `CCOc1ccc(N2CC(C(=O)NCCc3ccc(OC)c(OC)c3)CC2=O)cc1` (configuration not stated), the EC50 is 36.1 µM (active) in experiment [1] and > 112 µM (not active) in experiment [2]. Regarding `Cc1ccc(NC(=O)C(=O)c2ccc(C)cc2)cc1`, at Protein skinhead-1, the IC50 was 98.5 µM (inactive).

As to `COc1ccc2c3c(n(C)c2c1)[C@H](CO)N(Cc1ccncc1)CC31CCN(C(=O)Cc2ccncc2)CC1`, the half-maximal activity concentration (AC50) in experiment [3] was 7.67 µM (active). With `Cc1cc(-n2c(C)cc(C(=O)COc3ccc4ccc(=O)oc4c3)c2C)no1`, the IC50 with H9c2 is 24.7 µM (active). For the same compound, in experiment [4], the CC50 is > 40 µM (active). On to `COC(=O)c1ccc(CN2CC(=O)N3[C@H](CO)[C@@H](c4ccc(-c5ccccc5F)cc4)[C@H]3C2)cc1`, for which the AC50 in experiment [3] was 30 µM (active).

On to `CC(=O)Nc1cccc(N2C(=O)CC(Cc3ccccc3)C2=O)c1` (configuration not stated), for which the EC50 in experiment [1] and in experiment [2] was > 112 µM (not active) each time. `COCOCCn1cc(CN2CCS(=O)(=O)N(Cc3ccc(-c4cccc(N(C)C)c4)cc3)C(C(C)C)C2=O)nn1` (configuration not stated): at Protein skinhead-1, the IC50 was > 100 µM (inactive).

With `COC(=O)c1cccc(NC(=O)Nc2ccc(Cl)cc2Cl)c1`, the EC50 in experiment [1] and in experiment [2] was > 112 µM (not active) throughout.

Take `Cc1ccn2c(-c3csc(NCc4ccccc4)n3)c(C)nc2c1`: the CC50 in experiment [4] was > 40 µM (active). Same read-out and setting: the value for `CN(C)c1ccc(N=Nc2ccccc2C(=O)OCC(=O)NCC2CCCCC2)cc1` was > 40 µM (active). In the case of `N#Cc1cncc(C#Cc2ccccc2)c1`, the IC50 at Protein skinhead-1 was 16.9 µM (active). On the same count and under the same terms, the value for `Brc1cccc(-c2nc(-c3ccncc3)no2)c1` was 16.6 µM (active). On to `COc1ccc(CNc2ccc(-c3ccc(OC)cc3)nn2)cc1`, for which the EC50 in experiment [1] and in experiment [2] was > 112 µM (not active) each time.

With `CCOC(=O)c1ccc(/N=C2\C(=S)N(c3ccc(C(=O)OCC)cc3)C(=N)N2/N=C/c2ccccc2)cc1`, in experiment [4], the CC50 was > 40 µM (active). Turning to `Cc1ccc(NS(=O)(=O)c2cccc(C(=O)N3CCCCCC3)c2)cc1`, the EC50 in experiment [1] and in experiment [2] was > 112 µM (not active) throughout. As for `COc1cc(OC)c(NC(=O)c2cc(S(=O)(=O)N3CCOCC3)cn2C)cc1Cl`, the EC50 in experiment [1] and in experiment [2] was > 112 µM (not active) throughout.

In the case of `COc1ccc(C(=O)C(CCC(CNC(C)(C)C)C(=O)c2ccc(OC)cc2)CNC(C)(C)C)cc1` (configuration not stated), the concentration giving a half-maximal response (EC50) was 2.48 µM (active) in experiment [5], 3.04 µM (active) in experiment [6], 4.24 µM (active) in experiment [1] and > 112 µM (not active) in experiment [2].

`COc1ccc(CN2C[C@H](C)[C@@H](OC)CN(C)C(=O)c3cc(NC(=O)c4nc5ccccc5s4)ccc3OC[C@@H]2C)cc1`: in experiment [3], the concentration at half-maximal activity (AC50) was 4.9 µM (active). On to `CSc1ccc(/C=N/NC(=O)c2cccc(O)c2)cc1`, for which the figures for the EC50 in experiment [1] and in experiment [2] were 6.7 µM (active) and 0.619 µM (active), respectively. Take `Cc1cc2ccccc2n1CCNC(=O)C1CCCC1`: the IC50 on Protein skinhead-1 is > 100 µM (inactive).
